Where “and” joins values, the source holds several entries; their conditions need not be identical. Equal entries are not always repeated. Ends that are not written are not given here.
Experiments:
[1] = molecular target: T1, IDE (Homo sapiens, UniProt P14735); assay: Vulnerability of peptides to degradation by IDE: 0 vs 4 h pre-incubation, then FRET1 assay; format: biochemical; settings: for Ki: Cheng-Prusoff from IC50, FRET1 KM 10 uM, substrate 5 uM; for remaining activity at 0.12207 µM / remaining activity at 0.488281 µM / remaining activity at 1.95312 µM / remaining activity at 7.8125 µM / remaining activity at 31.25 µM / remaining activity at 125 µM / remaining activity at 500 µM: 4 h, read-out: Percent Activity (normalized initial velocity of FRET1 hydrolysis); for remaining activity at 0.12207 µM / remaining activity at 0.488281 µM / remaining activity at 1.95312 µM / remaining activity at 7.8125 µM / remaining activity at 31.25 µM / remaining activity at 125 µM / remaining activity at 500 µM / Percent Activity (normalized initial velocity of FRET1 hydrolysis): relative to DMSO-only controls, individual runs; for IC50: FRET1 assay
T1 construct: made in house; host or cells: bacteria
T1 sequence (P14735 1-1019): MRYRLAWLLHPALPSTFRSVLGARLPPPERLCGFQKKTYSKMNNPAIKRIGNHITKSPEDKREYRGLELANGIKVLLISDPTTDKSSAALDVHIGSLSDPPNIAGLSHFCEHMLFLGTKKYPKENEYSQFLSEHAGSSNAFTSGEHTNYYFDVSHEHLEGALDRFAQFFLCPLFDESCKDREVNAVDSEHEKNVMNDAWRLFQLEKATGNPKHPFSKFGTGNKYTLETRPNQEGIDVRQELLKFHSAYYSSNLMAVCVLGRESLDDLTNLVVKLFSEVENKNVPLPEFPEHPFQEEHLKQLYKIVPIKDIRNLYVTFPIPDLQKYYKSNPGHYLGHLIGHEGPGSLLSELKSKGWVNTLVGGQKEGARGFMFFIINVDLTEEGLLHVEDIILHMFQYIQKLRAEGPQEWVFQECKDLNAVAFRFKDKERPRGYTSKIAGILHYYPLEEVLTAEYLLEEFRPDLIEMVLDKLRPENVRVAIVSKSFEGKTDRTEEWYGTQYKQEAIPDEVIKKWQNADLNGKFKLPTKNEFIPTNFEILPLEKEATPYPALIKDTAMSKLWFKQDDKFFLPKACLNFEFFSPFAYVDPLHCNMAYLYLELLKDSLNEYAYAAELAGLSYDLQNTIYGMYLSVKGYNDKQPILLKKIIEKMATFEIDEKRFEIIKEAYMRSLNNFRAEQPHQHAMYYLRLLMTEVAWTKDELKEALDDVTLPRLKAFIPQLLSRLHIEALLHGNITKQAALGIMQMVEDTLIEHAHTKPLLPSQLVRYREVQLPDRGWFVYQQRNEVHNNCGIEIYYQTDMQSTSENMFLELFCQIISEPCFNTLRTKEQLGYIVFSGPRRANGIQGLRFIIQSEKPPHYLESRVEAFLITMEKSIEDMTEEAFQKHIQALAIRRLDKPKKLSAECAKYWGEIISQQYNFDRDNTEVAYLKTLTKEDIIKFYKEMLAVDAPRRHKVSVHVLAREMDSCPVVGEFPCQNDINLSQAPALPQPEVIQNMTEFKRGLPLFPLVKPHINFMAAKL
Method: (§1) IDE activity was quantified by monitoring the degradation of Mca-[…](Dnp) (FRET1, 5 μM), fluoresceinated and biotinylated amyloid ß-protein (FAßB; 500 nM) or recombinant human insulin (50 nM) in PBS supplemented with 0.05% BSA. […] In vitro activity assays incorporated recombinant human IDE (1 nM) purified from bacteria. For quantitation of insulin degradation in primary murine skin fibroblasts, cells (1 x 10^5/well) were plated in 96-well plates and maintained in DMEM supplemented with 10% fetal bovine serum (FBS), 2mM glutamine, penicillin and streptomycin. After addition of insulin (10 nM or 100 nM), samples of conditioned medium were removed daily and quickly frozen, then insulin levels were quantified in parallel by ELISA according to manufacturer’s recommendations (Crystal Chem, Downers Grove, IL, USA). Assessment of the activity of P12-3A against a variety of matrix-metalloproteases was conducted using the Matrix Metalloproteinase (MMP) Inhibitor Profiling Kit, Fluorometric RED (Enzo Life Sciences, Inc., Farmingdale, NY, USA) according to manufacturer’s recommendations using the broad-spectrum MMP inhibitor, NNGH, as a positive control.

[2] = molecular target: T1, IDE; assay: biochemical; settings: for IC50: insulin ELISA assay, dose-response; for Ki: substrate recombinant human insulin 50 nM, Ki from IC50 with the Cheng-Prusoff equation
Source text: The six selected peptide sequences (C7C-1, C7C-2, 12–1, 12–2, 12–3 and 12–4) were synthesized, together with a variety of modifications, yielding a total of 25 peptides (Table 1). For the 12-mer peptides, we synthesized variants of the parent peptides truncated at one or both termini, to test whether the entire sequence was necessary or not, in the hope that shorter, and thus less expensive, sequences might be effective. Other modifications included N-terminal acetylation and C-terminal amidation, included to mimic the charge state of the peptides when incorporated in the phage coat protein (Table 1). To assess the extent to which these peptide sequences inhibit IDE, we quantified their potency in protease activity assays using recombinant human IDE and two different substrates: FRET1, a fluorogenic peptide, and recombinant human insulin.
IDE activity was quantified by monitoring the degradation of Mca-[…](Dnp) (FRET1, 5 μM), fluoresceinated and biotinylated amyloid ß-protein (FAßB; 500 nM) or recombinant human insulin (50 nM) in PBS supplemented with 0.05% BSA. FRET1 degradation was measured by changes in fluorescence (λex = 340 nm, λem = 420 nm); FAßB degradation was monitored by fluorescence polarization (λex = 488 nm, λem = 525 nm), as described; and insulin degradation was quantified by ELISA. In vitro activity assays incorporated recombinant human IDE (1 nM) purified from bacteria. For quantitation of insulin degradation in primary murine skin fibroblasts, cells (1 x 10^5/well) were plated in 96-well plates and maintained in DMEM supplemented with 10% fetal bovine serum (FBS), 2mM glutamine, penicillin and streptomycin. After addition of insulin (10 nM or 100 nM), samples of conditioned medium were removed daily and quickly frozen, then insulin levels were quantified in parallel by ELISA according to manufacturer’s recommendations (Crystal Chem, Downers Grove, IL, USA). Assessment of the activity of P12-3A against a variety of matrix-metalloproteases was conducted using the Matrix Metalloproteinase (MMP) Inhibitor Profiling Kit, Fluorometric RED (Enzo Life Sciences, Inc., Farmingdale, NY, USA) according to manufacturer’s recommendations using the broad-spectrum MMP inhibitor, NNGH, as a positive control.

[3] = molecular target: T1, IDE; assay: biochemical; settings: for IC50: dose-response, FRET1; for IC50 <500 uM?: initial test at 500 uM; for remaining activity at 500 µM: individual replicates, read-out: Percent activity at 500 uM, Replicate 1-4; for Percent activity at 500 uM, Mean: N 4
Method: The six selected peptide sequences (C7C-1, C7C-2, 12–1, 12–2, 12–3 and 12–4) were synthesized, together with a variety of modifications, yielding a total of 25 peptides (Table 1). […] Other modifications included N-terminal acetylation and C-terminal amidation, included to mimic the charge state of the peptides when incorporated in the phage coat protein (Table 1).
as §1

[4] = 4-hr incubation, Cmpd 0.12207 uM
[5] = 4-hr incubation, Cmpd 0.488281 uM
[6] = 4-hr incubation, Cmpd 1.95312 uM
[7] = 4-hr incubation, Cmpd 7.8125 uM
[8] = 4-hr incubation, individual replicates, read-out: IC50s
[9] = 4-hr incubation, mean of 2 replicates, read-out: IC50s, Mean
[10] = Replicates 1-3, read-out: IC50s, individual replicates
[11] = Cheng-Prusoff, KM 10 uM, substrate concentration 5 uM, read-out: Ki values, Mean
[12] = individual runs, read-out: IC50s, Run 1-6
[13] = substrate FRET1 5 μM, Ki from IC50 with the Cheng-Prusoff equation, read-out: Ki FRET1
[14] = peptide at 10 uM, insulin 100 nM, normalized to DMSO-only and no-enzyme controls

In the case of VHWDFRQW-NH2 [P12-1B], the Ki ([1]; 4-hr incubation) is reported as 131 µM, the remaining activity at 0.12207 µM [1, 4] is reported as 90.2% and the remaining activity at 0.488281 µM [1, 5] is reported as 82.8%. It also gave a remaining activity at 1.95312 µM [1, 6] of 80.5%, a remaining activity at 7.8125 µM [1, 7] of 70.1% and a remaining activity at 31.25 µM ([1]; 4-hr incubation, Cmpd 31.25 uM) of 51.8%. It also gave a remaining activity at 125 µM ([1]; 4-hr incubation, Cmpd 125 uM) of 36.3%, a remaining activity at 500 µM ([1]; 4-hr incubation, Cmpd 500 uM) of 9.02% and an IC50 ([1]; 0-hr incubation, mean of runs, read-out: IC50s, Mean) of 61.4 µM. The IC50 [1, 8] was 200 µM and 193 µM, the IC50 [1, 9] was 197 µM and the IC50 [2, 10] was 20.6 µM and 9.35 µM and 12.2 µM. The IC50 ([2]; N=3, read-out: IC50s, Mean) was 14 µM, the Ki [2] was 7 ± 1.7 µM and the Ki [3, 11] was 40.9 µM. The IC50 [3, 12] was 52.2 µM and 51.3 µM and 80.5 µM, the IC50 ([3]; read-out: IC50s, Mean) was 61.4 µM and the “IC50 <500 uM?” value [3] was “YES”. For the same substance, the remaining activity at 500 µM ([3]; judged as IC50 <100 uM?) was 32.1% and the Ki [3, 13] was 41 ± 6.4 µM.
For WCYPHCVT [P12-3C], the “Percent Activity (normalized initial velocity of FRET1 hydrolysis)” value ([1]; 0-hr incubation, Cmpd 0.12207 uM) was 87.1275% and 89.107% and 97.5567%, the “Percent Activity (normalized initial velocity of FRET1 hydrolysis)” value ([1]; 0-hr incubation, Cmpd 0.488281 uM) was 88.274% and 92.2277% and 96.9846% and the “Percent Activity (normalized initial velocity of FRET1 hydrolysis)” value ([1]; 0-hr incubation, Cmpd 1.95312 uM) was 91.5093% and 89.6687% and 99.5643%. For the same substance, the “Percent Activity (normalized initial velocity of FRET1 hydrolysis)” value ([1]; 0-hr incubation, Cmpd 7.8125 uM) was 83.3253% and 88.0997% and 90.5388%, the “Percent Activity (normalized initial velocity of FRET1 hydrolysis)” value ([1]; 0-hr incubation, Cmpd 31.25 uM) was 61.5604% and 65.1463% and 71.7432% and the “Percent Activity (normalized initial velocity of FRET1 hydrolysis)” value ([1]; 0-hr incubation, Cmpd 125 uM) was 22.5624% and 28.2506% and 30.6967%. For the same substance, the “Percent Activity (normalized initial velocity of FRET1 hydrolysis)” value ([1]; 0-hr incubation, Cmpd 500 uM) was 2.879% and 4.537% and 8.696%, the “Percent Activity (normalized initial velocity of FRET1 hydrolysis)” value [1, 4] was 96.239% and 102.101% and the “Percent Activity (normalized initial velocity of FRET1 hydrolysis)” value [1, 5] was 100.910% and 100.775%. For the same substance, the “Percent Activity (normalized initial velocity of FRET1 hydrolysis)” value [1, 6] was 100.923% and 102.486%, the “Percent Activity (normalized initial velocity of FRET1 hydrolysis)” value [1, 7] was 97.345% and 105.750% and the “Percent Activity (normalized initial velocity of FRET1 hydrolysis)” value ([1]; 4-hr incubation, Cmpd 31.25 uM) was 94.256% and 100.607%. For the same substance, the “Percent Activity (normalized initial velocity of FRET1 hydrolysis)” value ([1]; 4-hr incubation, Cmpd 125 uM) was 90.993% and 91.075%, the “Percent Activity (normalized initial velocity of FRET1 hydrolysis)” value ([1]; 4-hr incubation, Cmpd 500 uM) was 24.626% and 23.530% and the “percent decrease in insulin detected by ELISA, Replicate 1” value [2, 14] was 111.9%. The “percent decrease in insulin detected by ELISA, Replicate 2” value [2, 14] was 145.7%, the “percent decrease in insulin detected by ELISA, Replicate 3” value [2, 14] was 105.6% and the “percent decrease in insulin detected by ELISA, Replicate 4” value [2, 14] was 114.6%. For the same substance, the “percent decrease in insulin detected by ELISA, Mean” value ([2]; peptide at 10 uM, insulin 100 nM, normalized to DMSO-only and no-enzyme controls, N=4) was 119.5%, the “Percent activity at 500 uM, Mean” value ([3]; initial test, percent of initial velocity relative to DMSO-only controls) was 6.4% and the “Percent activity at 500 uM, Mean” value ([3]; judged as IC50 <100 uM?) was 29.8%.
For WSPISGKFFQRF-NH2 [P12-4A], the Ki ([1]; 4-hr incubation) was 43.5 µM, the remaining activity at 0.12207 µM [1, 4] was 78.9% and the remaining activity at 0.488281 µM [1, 5] was 81.8%. For the same substance, the remaining activity at 1.95312 µM [1, 6] was 85.3%, the remaining activity at 7.8125 µM [1, 7] was 83.2% and the remaining activity at 31.25 µM ([1]; 4-hr incubation, Cmpd 31.25 uM) was 35.7%. For the same substance, the remaining activity at 125 µM ([1]; 4-hr incubation, Cmpd 125 uM) was 51.3%, the remaining activity at 500 µM ([1]; 4-hr incubation, Cmpd 500 uM) was 27.1% and the IC50 [1, 8] was 63.7 µM and 66.6 µM. For the same substance, the IC50 [1, 9] was 65.2 µM, the “IC50 <10 uM?” value ([2]; initial test at 10 uM using insulin (100 nM)) was “YES” and the IC50 [2, 10] was 6.44 µM and 6.45 µM and 2.48 µM. For the same substance, the IC50 ([2]; N=3, read-out: IC50s, Mean) was 5.12 µM, the Ki [2] was 2.6 ± 0.7 µM and the Ki [3, 11] was 4.25 µM. For the same substance, the IC50 [3, 12] was 6.41 µM and 2.96 µM and 9.75 µM, the IC50 ([3]; read-out: IC50s, Mean) was 6.37 µM and the “IC50 <500 uM?” value [3] was “YES”. It also gave a remaining activity at 500 µM ([3]; judged as IC50 <100 uM?) of 17.7% and a Ki [3, 13] of 4.2 ± 1.3 µM.
